Laboratory results as given in patent US12115209B2, “ROMO1-derived antimicrobial peptides including lysine substitution and variants thereof” (KOREA UNIVERSITY RESEARCH AND BUSINESS FOUNDATION, priority 2019, dated 2024).
No end group written: not given here.

What was measured:
[1] = Toxicity in vivo (survival and weight after intravenous injection); parameters: species or system mouse (C57BL/6); conditions: 100 mg/kg intravenous
Experimental: At this time, the maximum volume of the injection dose was 150 μl.

[2] = tested on: Human vascular endothelial cells (HUVECs); test: Toxicity to human vascular endothelial cells (MTT); format: cell-based; conditions: 0 μg/ml to 300 μg/ml
Experimental: PBS was used as a control.
The HUMEC medium was replaced with fresh medium, and KU-5878, melittin or magainin 2 were dispensed at various concentrations (0 μg/ml to 300 μg/ml). Then, each well was treated with 100 μl of MTT reagent and incubated at 37° C. for 2 hours. Then, the medium and the peptide were carefully removed so as not to separate the cells, and 100 μl of DMSO (dimethyl sulfoxide) was added to each well, and the absorbance at a wavelength of 570 nm was measured using a spectrophotometer. Relative cell viability was calculated as a percentage of the viability of untreated control cells.

[3] = tested on: Staphylococcus aureus, Pseudomonas aeruginosa, methicillin-resistant Staphylococcus aureus and multidrug-resistant Pseudomonas aeruginosa; test: Bacteria remaining in the blood of infected mice after intravenous injection of the drug; format: in vivo, mice (C57BL/6); conditions: 10 mg/kg intravenous 1 hour after infection; blood 40 minutes after injection; compared with LL-37, magainin 2, daptomycin
Experimental: Specifically, Staphylococcus aureus, Pseudomonas aeruginosa, methicillin-resistant Staphylococcus aureus and multidrug-resistant Pseudomonas aeruginosa was cultured in 3% (w/v) TSB liquid medium at 37° C. and 200 rpm for 4 hours, and then further cultured under the same conditions for 3 hours to a concentration of 5×10^9 CFU/ml. Strain solutions were prepared by diluting each of the further cultured strains with PBS solution to a final concentration of 1×10^5 CFU/μl.
Next, 100 μl of each strain solution was injected intravenously (IV) into the tail vein of each of 10-week-old male mice (C57BL/6). After one hour, KU-5878 was intravenously injected at a concentration of 10 mg/kg. As a control, PBS was intravenously injected at a concentration of 10 mg/kg, and as a positive control, LL-37, magainin 2, or daptomycin was intravenously injected at a concentration of 10 mg/kg.
40 minutes after the intravenous injection of each drug, about 1 cm from the tail end of each mouse was cut using surgical scissors, and 10 μl of the blood at the end of the cut was collected and diluted in PBS. The diluted blood sample was plated on a previously prepared TSB agar plate and incubated in an incubator at 37° C. for 18 hours, and the formed colonies were counted for comparison.

[4] = tested on: Streptomyces sindenensis (ATCC 12392); format: cell-based; conditions: ATCC 12392, 4 h
Experimental: (§1) Specifically, each type of bacteria was cultured in 3% (w/v) TSB (tryptic soy broth) liquid medium at 37° C. and 200 rpm for 4 hours, and then further cultured under the same conditions for 3 hours to a concentration of 5×10^6 CFU/ml. Strain solutions were prepared by diluting each of the further cultured strains with SP buffer to a final concentration of 2×10^5 CFU/ml.
(§2) Then, the KU-5878 peptide at varying concentrations (0 μg/ml to 300 μg/ml) was dispensed into each well of a 96-well microplate, and 100 μl (1×10^5 CFU/ml) of each of the prepared strain solutions was added thereto, mixed therewith, and allowed to react with the peptide in an incubator at 37° C. for 1 hour.
(§3) In addition, 10 μl of each reaction solution of the peptide and the strain was plated on the TS agar plate at a constant size, and incubated in an incubator at 37° C. for 18 hours, and then colony formation on the plate was checked. The minimum bactericidal concentration was defined as the minimum concentration of the peptide at which no colony was formed, and the experimental results are shown in Table 2 below.

[5] = tested on: Enterococcus faecalis (ATCC 19433); format: cell-based; conditions: ATCC 19433, 4 h
Experimental: as §1, §2, §3

[6] = tested on: Acinetobacter baumannii (ATCC 19606); format: cell-based; conditions: ATCC 19606, 4 h
Experimental: as §1, §2, §3

[7] = tested on: Escherichia coli (ATCC 25922); format: cell-based; conditions: ATCC 25922, 4 h
Experimental: as §1, §2, §3

[8] = tested on: Klebsiella pneumoniae (ATCC 13883); format: cell-based; conditions: ATCC 13883, 4 h
Experimental: as §1, §2, §3

[9] = tested on: Enterococcus faecium (ATCC 19434); format: cell-based; conditions: ATCC 19434, 4 h
Experimental: as §1, §2, §3

[10] = tested on: Bacillus subtilis (ATCC 6633); format: cell-based; conditions: ATCC 6633, 4 h
Experimental: as §1, §2, §3

[11] = tested on: Enterobacter aerogenes (ATCC 13048); format: cell-based; conditions: ATCC 13048, 4 h
Experimental: as §1, §2, §3

KTMMQSGGTFGTFMAIGMGIR [KU-5878]
effect on the weight of the mice ([1]; 24-hour intervals for 12 days): no effect on the weight
survival of mice after injection ([1]; observed 12 days): all survived
toxicity to the HUVECs (relative cell viability, MTT) [2]: very low toxicity
number of bacteria remaining in the blood vessels of the mice [3]: most greatly decreased
MBC value [4]: 95 µg/mL
MBC value [5]: 85 µg/mL
MBC value [6]: 100 µg/mL
MBC value [7]: 85 µg/mL
MBC value [8]: 100 µg/mL
MBC value [9]: 85 µg/mL
MBC value [10]: 90 µg/mL
MBC value [11]: 90 µg/mL
